Source: article PMC12562567, “Comparative Efficacy of CK2 Inhibitors CX-4945 and SGC-CK2-2 on CK2 Signaling” (International Journal of Molecular Sciences, 2025)
pIC50: −log10 of the molar value. Where two headings read alike, the source gives them in different places.

Tests used:
[1] = set-up: method as in PMID 37901516; details: 30 min of incubation; cited from earlier work
[2] = cited from earlier work
CSNK2A1 = system: CSNK2A1; set-up: method as in PMID 41883516; details: cited from earlier work
HeLa cells = assay: MTT cell viability assay, HeLa; assay type: cell-based, human
Procedure: (§1) One hour before the end of the incubations, 10 μL of MTT solution (5 mg/mL in PBS) was added to each well. […] Plates were read at λ 540 nm absorbance, in a Titertek Multiskan Plus plate reader (Flow Laboratories, Sutton, UK).

PARP-1 [3] = assay: PARP-1 degradation/cleavage by Western blot, HeLa; details: HeLa cells
PARP-1 [4] = assay: PARP-1 degradation/cleavage by Western blot, MDA-MB-231; assay type: cell-based; details: MDA-MB-231 cells
[5] = set-up: method as in PMID 37077385; details: preliminary proliferation assays; cited from earlier work
phospho-Akt1 S129 [6] = assay: Western blot of phospho-Akt1 S129 (CK2 substrate) in MDA-MB-231 cells; assay type: cell-based; details: for pIC50: Homo sapiens, read-out: IC50 pS129 AKT phosphorylation
Text: (§2) We repeated the same treatments using a different cell line, breast cancer MDA-MB-231. […] . Even though MDA-MB-231 was less responsive to the two CK2 inhibitors than HeLa cells, the overall outcome appeared similar. […] .

phospho-cdc37 S13 [7] = assay: Western blot of phospho-cdc37 S13 (CK2 substrate) in MDA-MB-231 cells; assay type: cell-based; details: Homo sapiens, read-out: IC50 pS13 cdc37 phosphorylation
Text: as §2

phospho-Akt1 S129 [8] = assay: Western blot of phospho-Akt1 S129 (CK2 substrate) in HeLa cells; assay type: cell-based, human; details: for pIC50: Homo sapiens, read-out: IC50 pS129 AKT phosphorylation
Text: (§3) . These substrates were selected based on their different responses to kinase inhibition. S129Akt was described in 2015 as a specific CK2 substrate, and its phosphorylation is highly sensitive to CK2 inhibition showing a strong early reduction. On the contrary, S13-cdc37, described in 2004 as a CK2-specific substrate, requires higher inhibitor concentrations or longer exposure times to achieve a significant impact on its phosphorylation. The phosphorylation of both substrates is reduced in CK2-knockout cells. Moreover, to gain a more comprehensive view of CK2 substrate phosphorylation, we used a phosphoantibody developed against p-Ser/p-Thr containing a CK2 consensus sequence (pS/pTDXE motif).

MDA-MB-231 cells = assay: MTT cell viability assay, MDA-MB-231; assay type: cell-based; details: for Effect on cell viability (reduction): MDA cells, 2.5 µM
Procedure: as §1

phospho-cdc37 S13 [9] = assay: Western blot of phospho-cdc37 S13 (CK2 substrate) in HeLa cells; assay type: cell-based, human; details: 24 h
Text: as §3

[10] = MDA-MB-231 cells, 24 h, densitometry of Western blot

## CCC(=O)Nc1cc(Nc2cc(NC3CC3)n3ncc(C#N)c3n2)ccc1C [SGC-CK2-1]
[1]
  Compound degraded in vitro in mouse liver microsomes: 60%
[2]
  Aqueous solubility: moderate
CSNK2A1; after 4 h of treatment
  Significantly downregulated phosphopeptides determined to be CSNK2A1 dependent: 55%
CSNK2A1; after 24 h of treatment
  Significantly downregulated phosphopeptides determined to be CSNK2A1 dependent: 55%

## O=C(O)c1ccc2c(c1)nc(NCc1ccccc1)c1ncncc12 [SGC-CK2-2]
HeLa cells; HeLa cells, 24 h, all concentrations tested (up to 40 µM), MTT
  Reduction in cell viability achieved: < 50%
HeLa cells; HeLa, 2.5 µM, 24 h treatment
  Effect on cell viability: no significant effect
PARP-1 [3]; 24 h
  Concentration at which PARP-1 degradation (reduction in total PARP-1) is visible: 40 µM
PARP-1 [3]; 48 h
  Concentration at which PARP-1 degradation (reduction in total PARP-1) is visible: 20 µM
PARP-1 [4]; 24 h, all concentrations tested
  Degradation of PARP-1: did not induce any degradation
PARP-1 [4]; 48 h
  Concentration giving significant PARP-1 degradation: ≥ 20 µM
[5]
  Antiproliferative effects: lacks antiproliferative effects
phospho-Akt1 S129 [6]; MDA-MB-231, 24 h
  pIC50: 5.89
phospho-Akt1 S129 [6]; MDA, 24 h treatment
  Concentration that nearly abolishes Akt S129 phosphorylation: 5 µM
phospho-cdc37 S13 [7]; MDA-MB-231, 24 h
  pIC50: 4.69
phospho-Akt1 S129 [8]; HeLa, 24 h treatment
  Concentration that nearly abolishes Akt S129 phosphorylation: 2.5 µM
phospho-Akt1 S129 [8]; HeLa, 24 h
  pIC50: 5.66
MDA-MB-231 cells; MDA, 5 µM, 24 h treatment
  Effect on cell viability: no significant effect
MDA-MB-231 cells; MDA-MB-231 cells, 24 h, all concentrations tested (up to 40 µM), MTT
  Reduction in cell viability achieved: < 50%
[2]
  Aqueous kinetic solubility relative to SGC-CK2-1: markedly improved
phospho-cdc37 S13 [9]; Homo sapiens, HeLa, read-out: IC50 pS13 cdc37 phosphorylation, HeLa cells, 24 h, densitometry of Western blot
  pIC50: 5.05
phospho-cdc37 S13 [9]; read-out: IC50 pS13 cdc37 phosphorylation, HeLa cells, densitometry of Western blot
  pIC50: 5.00

## O=C(O)c1ccc2c(c1)nc(Nc1cccc(Cl)c1)c1ccncc12 [CX-4945]
HeLa cells; HeLa cells, 2.5 µM, 24 h, MTT
  Effect on cell viability (reduction): ~ 20%
HeLa cells; HeLa cells, 2.5 µM, 48 h, MTT
  Effect on cell viability (reduction): ~ 30%
PARP-1 [3]; 24 h
  Concentration at which PARP-1 degradation (reduction in total PARP-1) is visible: 10 µM
PARP-1 [3]; 48 h
  Concentration at which PARP-1 degradation (reduction in total PARP-1) is visible: 5 µM
PARP-1 [3]; after 48 h (first mention (so in the source))
  Concentration at which the 89 KDa PARP fragment is detected: 5 µM
PARP-1 [3]; after 48 h (second mention)
  Concentration at which the 89 KDa PARP fragment is detected: 2.5 µM
phospho-Akt1 S129 [6]; [10]
  pIC50: 6.05
phospho-cdc37 S13 [7]; [10]
  pIC50: 5.36
phospho-Akt1 S129 [8]; HeLa cells, 2.5 µM (lowest concentration tested), 24 h
  Phosphorylation of Akt at Ser129: completely abolished
phospho-Akt1 S129 [8]; HeLa cells, 24 h, densitometry of Western blot
  pIC50: 6.15
MDA-MB-231 cells; 24 h, MTT
  Effect on cell viability (reduction): ~ 5%
MDA-MB-231 cells; 48 h, MTT
  Effect on cell viability (reduction): ~ 15%
phospho-cdc37 S13 [9]; Homo sapiens, HeLa cells, densitometry of Western blot, read-out: IC50 pS13 cdc37 phosphorylation
  pIC50: 5.52
CSNK2A1; after 4 h of treatment
  Significantly downregulated phosphopeptides determined to be CSNK2A1 dependent: 15%
CSNK2A1; after 24 h of treatment
  Significantly downregulated phosphopeptides determined to be CSNK2A1 dependent: 5%
